Results published in US7763615B2, “Ecteinascidin analogs for use as antitumour agents” (priority 2001, dated 2010).
In brackets after ≈: the same amount, converted by molar mass. Where two headings read alike, the source gives them in different places.

Legend:
[1] = s9, 60 min, 1 μM
Protocol: The metabolic stability was determined used human liver S9 homogenate that including both microsomal and cytosolic enzyme activities. The test compound was diluted in methanol (0.625%) and acetonitrile (0.625%) at the concentration 1 μM and incubated in the human liver pool (protein=1 mg/mL) during 60 min at 37° C. Peak areas corresponding to all analytes (metabolic products) were determined by HPLC-MS/MS. Areas were recorded and ratios of peak areas of analytes to that of internal standard for each analyte were determined. The ratio of precursor compound remaining after 60 minutes and the amount remaining at time zero, expressed as percent, are reported as metabolic stability. Higher values mean higher metabolic stability.

[2] = physchem; settings: pH 7.4, log D n-Octanol-Dulbecco's PBS pH 7.4
Protocol: The measurement of partition coefficient was evaluated based on a miniaturized shake-flask procedure. Buffer (Dulbecco's PBS, pH 7.40) was used as the aqueous phase. The tested compound was dissolved in DMSO, at the concentration of 100 μM. The final DMSO concentration (1%.) during the octanol-buffer partitioning are very low to avoid bias on the partitioning. The amount of compound in the buffer phase was determined by HPLC with photodiode array detection after an equilibration phase of 60 min. The amount of compound in the octanol phase is calculated by subtraction of the amount of compound in buffer from the total amount of compound, which is determined from a calibration sample.
Log D is calculated as the Log10 of the amount of compound in the octanol phase divided by the amount of compound in the buffer phase. The effective range of the log D microassay is approximately −0.5 to +4.5.

[3] = system: (HEPG2); settings: human, 24 h, 30 μM
Protocol: The toxic potential of compounds was investigated in vitro using primary human hepatocytes (HEPG2). The compounds were tested at 30 μM in duplicate with a final DMSO concentration of 1%. After incubation during 24 h at 37° C. the cell viability was determined by the conversion of oxided alarmarBlue (resazurin) to reduced alarmarBlue (resorufin). Chlorpromazine was used as reference compound. Results are expressed as a percent of inhibition of control values.

[4] = system: L8, normal rat skeletal muscle cells; settings: 24 h
[5] = system: AML-12, normal mouse liver cells; settings: 24 h
[6] = target: CYP2D6 (Homo sapiens, UniProt P10635); assay: in vitro; settings: CYP2D6 (% inhibition)
[7] = system: NRK-52E, normal rat kidney cells; settings: 24 h
[8] = system: H9c2 (2-1), normal rat cardiac muscle cells; settings: 24 h
[9] = physchem; settings: pH 7.4, aqueous buffer, Solubility Dulbecco's PBS pH 7.4
[10] = system: DU145; assay: cells; format: cell-based; settings: for TGI: DU145
Method in brief: (§1)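 SRB colorimetric growth assay: 5×10^3 cells/well, 18 h attachment, 48 h continuous compound exposure at 10–10^−8 μg/ml in DMSO/EtOH/PBS. TCA fixation, SRB stain, OD 490 nm; triplicate wells, GI, TGI and LC derived.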

[11] = system: MEL-28; assay: cells; format: cell-based; settings: for TGI: MEL-28
Method in brief: as §1

[12] = system: SW-620; assay: cells; format: cell-based; settings: Homo sapiens
Method in brief: as §1

[13] = system: A549; assay: cells; format: cell-based; settings: for GI50: read-out: GI50; for TGI: A549
Method in brief: as §1

[14] = system: A498; assay: cells; format: cell-based; settings: Homo sapiens
Method in brief: as §1

[15] = system: HT29; assay: cells; format: cell-based; settings: for TGI: HT29
Method in brief: as §1

[16] = system: MCF; assay: cells; format: cell-based; settings: Homo sapiens
Method in brief: as §1

[17] = system: MB231; assay: cells; format: cell-based; settings: Homo sapiens
Method in brief: as §1

[18] = target: CYP3A4 (Homo sapiens, UniProt P08684); assay: in vitro; settings: CYP3A4 (% inhibition)
Protocol: For CYP3A4 inhibition assay, the compound were tested at 10 μM in duplicate with a 0.25% final concentration of both methanol and acetonitrile in presence of the fluorescent substrate BFC (50 μM). The conversion of the BFC (7-benzyloxy-4-trifluoromethylcoumarin) in HFC (7-hydroxy-4-trifluoromethylcoumarin) was determined spectro-fluormetry after incubation with the enzyme during 30 min at 37° C.
For both assays, the fluorescent intensity measured at t=0 is subtracted from that measured after the appropriate incubation time. The ratio of signal-to-noise is calculated by comparing the fluorescence in incubations containing the test compound to the control samples containing the same solvent vehicle. The percent of control activity is calculated and reported as percent inhibition.

[19] = system: FDC-P1, normal mouse myelogeous stem cells; settings: 24 h
[20] = system: SK-OV3; assay: Inhibition of cells growth by colorimetric assay (SRB), SK-OV3; format: cell-based; settings: for GI50 / CC50: Homo sapiens; for GI50: SK-OV-3, SK-OV3; for CC50: SK-OV-3, read-out: LC50, SK-OV3; for TGI: SK-OV3
Method in brief: as §1

[21] = system: H-MEC-1; assay: Inhibition of cells growth by colorimetric assay (SRB), H-MEC-1; format: cell-based; settings: for TGI: H-MEC-1; for GI50 / CC50: Homo sapiens; for GI50: HMEC-1, H-MEC-1; for CC50: HMEC-1, read-out: LC50, H-MEC-1
Method in brief: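 Seeding density 5×10^3 cells/well; attachment 18 h in drug-free medium; exposure 48 h, 10 to 10^−8 μg/ml. Fixation cold TCA 60 min at 4° C, SRB 10 min, absorbance 490 nm.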

[22] = system: PANC-1; assay: cells; format: cell-based; settings: for GI50 / CC50: Homo sapiens; for GI50: PANC-1, PANC-1; for CC50: PANC-1, read-out: LC50, PANC-1; for TGI: PANC-1
Method in brief: as §1

[23] = system: IGROV; assay: cells; format: cell-based; settings: for GI50 / CC50: Homo sapiens; for CC50: read-out: LC50, IGROV
Method in brief: as §1

[24] = system: K562; assay: cells; format: cell-based; settings: for GI50 / CC50: Homo sapiens; for GI50: K562, K562; for CC50: K562, read-out: LC50, K562; for TGI: K562
Method in brief: as §1

[25] = system: IGROV-ET; assay: cells; format: cell-based; settings: for GI50 / CC50: Homo sapiens; for GI50 / TGI: IGROV-ET; for CC50: read-out: LC50, IGROV-ET
Method in brief: as §1

[26] = system: LNCAP; assay: cells; format: cell-based; settings: for GI50 / CC50: Homo sapiens, LNCaP; for CC50: read-out: LC50, LNCAP; for TGI: LNCAP
Method in brief: as §1

[27] = system: LOVO; assay: cells; format: cell-based; settings: for GI50 / CC50: Homo sapiens, LoVo; for CC50: read-out: LC50, LOVO; for TGI: LOVO
Method in brief: as §1

[28] = system: LOVO-DOX; assay: cells; format: cell-based; settings: for GI50 / CC50: Homo sapiens; for GI50 / TGI: LOVO-DOX; for CC50: read-out: LC50, LOVO-DOX
Method in brief: as §1

[29] = system: SK-BR3; assay: cells; format: cell-based; settings: for GI50 / CC50: Homo sapiens; for GI50: SK-BR-3, SK-BR3; for CC50: SK-BR-3, read-out: LC50, SK-BR3; for TGI: SK-BR3
Method in brief: as §1

[30] = Homo sapiens, DU-145, 48 h, DU145, 48 hours exposure, SRB
[31] = Homo sapiens, SK-MEL-28, 48 h, MEL-28, 48 hours exposure, SRB
[32] = Homo sapiens, HT-29, 48 h, HT29, 48 hours exposure, SRB
[33] = Homo sapiens, DU-145, read-out: LC50, DU145
[34] = Homo sapiens, SK-MEL-28, MEL-28
[35] = Homo sapiens, SK-MEL-28, read-out: LC50, MEL-28
[36] = Homo sapiens, A549, read-out: LC50, A549
[37] = Homo sapiens, HT-29, read-out: LC50, HT29

Sequence of CYP2D6 (P10635 whole entry): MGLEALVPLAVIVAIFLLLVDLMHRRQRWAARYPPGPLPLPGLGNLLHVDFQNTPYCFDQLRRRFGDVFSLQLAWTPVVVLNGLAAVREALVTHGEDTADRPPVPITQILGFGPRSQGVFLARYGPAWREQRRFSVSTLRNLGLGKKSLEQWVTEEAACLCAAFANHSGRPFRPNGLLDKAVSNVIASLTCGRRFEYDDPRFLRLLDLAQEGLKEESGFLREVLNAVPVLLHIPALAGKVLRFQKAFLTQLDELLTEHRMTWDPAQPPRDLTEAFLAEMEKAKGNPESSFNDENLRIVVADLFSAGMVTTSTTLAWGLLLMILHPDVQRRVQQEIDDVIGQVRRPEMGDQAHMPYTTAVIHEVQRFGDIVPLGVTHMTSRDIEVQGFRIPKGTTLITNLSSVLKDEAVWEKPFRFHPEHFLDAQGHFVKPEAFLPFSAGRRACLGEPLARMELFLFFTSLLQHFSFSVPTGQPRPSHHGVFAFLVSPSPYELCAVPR
Sequence of CYP3A4 (P08684 whole entry): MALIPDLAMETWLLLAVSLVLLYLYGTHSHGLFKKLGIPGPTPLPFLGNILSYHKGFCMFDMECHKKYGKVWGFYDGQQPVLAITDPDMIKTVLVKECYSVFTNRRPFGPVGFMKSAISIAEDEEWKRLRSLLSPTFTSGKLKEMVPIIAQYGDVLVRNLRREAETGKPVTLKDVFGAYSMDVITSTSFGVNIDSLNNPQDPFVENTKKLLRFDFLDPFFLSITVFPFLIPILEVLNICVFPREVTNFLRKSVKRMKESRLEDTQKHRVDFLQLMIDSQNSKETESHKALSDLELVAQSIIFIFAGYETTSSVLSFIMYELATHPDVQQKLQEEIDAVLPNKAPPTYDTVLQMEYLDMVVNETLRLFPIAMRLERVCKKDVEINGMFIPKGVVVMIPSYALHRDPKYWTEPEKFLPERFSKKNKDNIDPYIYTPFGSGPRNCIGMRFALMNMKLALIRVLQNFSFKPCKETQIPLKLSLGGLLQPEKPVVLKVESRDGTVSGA

Compound: COc1c(C)cc2c(c1O)[C@@H]1C3[C@@H]4SC[C@]5(NCCc6c5[nH]c5c(OCc7ccccc7)cccc65)C(=O)COC[C@@H](c5c6c(c(C)c(OC(C)=O)c54)OCO6)N3[C@@H](O)[C@H](C2)N1C (stereo partly drawn) [Compound 28]
- Human Liver S9 Metabolic Stability (% remaining) [1]: 33 % remaining
- logD at 60 min [2]: > 4.6
- Cell Viability (% inhibition) [3]: 17 % inhibition
- Skeletal [4]: 1.45E−07
- Liver [5]: 1.42E−07
- inhibition at 450 min, 10 µM [6]: 34%
- Kidney [7]: 8.37E−08
- Heart [8]: 1.84E−07
- solubility [9]: < 1 µM
- GI50 [10, 30]: 2.32 nM
- IC (TGI) [10, 30]: 3.48 nM
- CC50 ([10]; Homo sapiens, DU-145, 48 h, read-out: LC50, DU145, 48 hours exposure, SRB): 9.29 nM
- GI50 [11, 31]: 23.2 nM
- IC (TGI) [11, 31]: 34.8 nM
- CC50 ([11]; Homo sapiens, SK-MEL-28, 48 h, read-out: LC50, MEL-28, 48 hours exposure, SRB): 81.3 nM
- CC50 ([12]; SW-620, 48 h, read-out: LC50): 92.9 nM
- IC (TGI) ([12]; SW-620, 48 hours exposure, SRB): 23.2 nM
- GI50 ([12]; SW-620, 48 hours exposure, SRB, read-out: GI50): 6.97 nM
- GI50 ([13]; Homo sapiens, A549, 48 h, A549, 48 hours exposure, SRB): 3.48 nM
- IC (TGI) ([13]; Homo sapiens, A549, 48 h, A549, 48 hours exposure, SRB, read-out: TGI): 46.5 nM
- CC50 ([13]; Homo sapiens, A549, 48 h, read-out: LC50, A549, 48 hours exposure, SRB): 34.8 nM
- CC50 ([14]; A498, 48 h, read-out: LC50): 58.1 nM
- GI50 ([14]; A498, 48 hours exposure, SRB): 3.48 nM
- IC (TGI) ([14]; A498, 48 hours exposure, SRB): 11.6 nM
- GI50 [15, 32]: 11.6 nM
- IC (TGI) [15, 32]: 69.7 nM
- CC50 ([15]; Homo sapiens, HT-29, 48 h, read-out: LC50, HT29, 48 hours exposure, SRB): 105 nM
- CC50 ([16]; 48 h, read-out: LC50): 116 nM
- GI50 ([16]; MCF, 48 hours exposure, SRB): 5.81 nM
- IC (TGI) ([16]; MCF, 48 hours exposure, SRB, read-out: TGI): 23.2 nM
- CC50 ([17]; 48 h, read-out: LC50): 116 nM
- IC (TGI) ([17]; 48 h, read-out: TGI): 9.29 nM
- GI50 ([17]; MB231, 48 hours exposure, SRB): 3.48 nM
- inhibition at 30 min, 10 µM [18]: 79%
- Myelo [19]: 2.00E−07

Compound: COc1c(C)cc2c(c1OC(=O)OC(C)(C)C)[C@@H]1C3[C@@H]4SC[C@]5(NCCc6c5[nH]c5ccccc65)C(=O)COC[C@@H](c5c6c(c(C)c(OC(C)=O)c54)OCO6)N3[C@@H](O)[C@H](C2)N1C (stereo partly drawn) [Compound 46]
- Human Liver S9 Metabolic Stability (% remaining) [1]: 7 % remaining
- GI50 [20]: 30.6 nM
- CC50 [20]: ≥ 11700 nM
- TGI [20]: 2.00E−06
- logD at 60 min [2]: > 5
- Cell Viability (% inhibition) [3]: 33 % inhibition
- TGI [21]: 1.17E−06
- GI50 [21]: 26 nM
- CC50 [21]: ≥ 11700 nM
- Skeletal [4]: 2.16E−07
- Liver [5]: 5.01E−08
- inhibition at 450 min, 10 µM [6]: 16%
- Kidney [7]: 4.01E−08
- Heart [8]: 3.51E−08
- solubility [9]: 1.37 µM (≈ 1.19 µg/mL)
- TGI [10]: 4.61E−08
- GI50 ([10]; Homo sapiens, DU-145, DU145): 6.48 nM
- CC50 [10, 33]: ≥ 11700 nM
- GI50 [22]: 41.1 nM
- CC50 [22]: ≥ 11700 nM
- TGI [22]: 2.58E−07
- TGI [23]: 5.40E−08
- GI50 [23]: 23.2 nM
- CC50 [23]: 192 nM
- GI50 [11, 34]: 12.4 nM
- CC50 [11, 35]: 153 nM
- TGI [11]: 4.07E−08
- TGI [13]: 6.78E−08
- GI50 ([13]; Homo sapiens, A549, A549): 33.3 nM
- CC50 [13, 36]: 335 nM
- TGI [15]: 1.22E−06
- GI50 ([15]; Homo sapiens, HT-29, HT29): 44.4 nM
- CC50 [15, 37]: ≥ 11700 nM
- GI50 [24]: 1220 nM
- CC50 [24]: 3380 nM
- TGI [24]: 2.02E−06
- GI50 [25]: 49.5 nM
- CC50 [25]: 7350 nM
- TGI [25]: 1.29E−07
- GI50 [26]: 0.117 nM
- CC50 [26]: 17.5 nM
- TGI [26]: 3.25E−09
- GI50 [27]: 15.6 nM
- CC50 [27]: ≥ 11700 nM
- TGI [27]: 5.70E−08
- GI50 [28]: 38.2 nM
- CC50 [28]: ≥ 11700 nM
- TGI [28]: 2.41E−07
- GI50 [29]: 16.3 nM
- CC50 [29]: 412 nM
- TGI [29]: 5.84E−08
- inhibition at 30 min, 10 µM [18]: 60%
- Myelo [19]: 1.17E−07

Compound: C=COC(=O)Oc1c(OC)c(C)cc2c1[C@@H]1C3[C@@H]4SC[C@]5(NCCc6c5[nH]c5ccccc65)C(=O)COC[C@@H](c5c6c(c(C)c(OC(C)=O)c54)OCO6)N3[C@@H](O)[C@H](C2)N1C (stereo partly drawn) [Compound 47]
- Human Liver S9 Metabolic Stability (% remaining) [1]: 5 % remaining
- GI50 [20]: 8.98 nM
- CC50 [20]: ≥ 12100 nM
- TGI [20]: 2.88E−07
- logD at 60 min [2]: > 5
- Cell Viability (% inhibition) [3]: 18 % inhibition
- TGI [21]: 1.50E−07
- GI50 [21]: 6.78 nM
- CC50 [21]: ≥ 12100 nM
- Skeletal [4]: 2.57E−08
- Liver [5]: 3.04E−08
- inhibition at 450 min, 10 µM [6]: 10%
- Kidney [7]: 3.15E−08
- Heart [8]: 7.36E−08
- solubility [9]: < 1 µM
- TGI [10]: 2.06E−08
- GI50 ([10]; Homo sapiens, DU-145, DU145): 5.46 nM
- CC50 [10, 33]: ≥ 12100 nM
- GI50 [22]: 42.4 nM
- CC50 [22]: ≥ 12100 nM
- TGI [22]: 1.70E−06
- TGI [23]: 4.07E−08
- GI50 [23]: 10.6 nM
- CC50 [23]: 909 nM
- GI50 [11, 34]: 4.26 nM
- CC50 [11, 35]: 207 nM
- TGI [11]: 1.00E−08
- TGI [13]: 7.50E−08
- GI50 ([13]; Homo sapiens, A549, A549): 33.3 nM
- CC50 [13, 36]: 1330 nM
- TGI [15]: 1.21E−05
- GI50 ([15]; Homo sapiens, HT-29, HT29): 38.8 nM
- CC50 [15, 37]: ≥ 12100 nM
- GI50 [24]: 13.1 nM
- CC50 [24]: 6320 nM
- TGI [24]: 2.11E−06
- GI50 [25]: 69.7 nM
- CC50 [25]: ≥ 12100 nM
- TGI [25]: 3.61E−06
- GI50 [26]: 2.65 nM
- CC50 [26]: 9.76 nM
- TGI [26]: 5.08E−09
- GI50 [27]: 6.26 nM
- CC50 [27]: ≥ 12100 nM
- TGI [27]: 4.64E−08
- GI50 [28]: 40.7 nM
- CC50 [28]: ≥ 12100 nM
- TGI [28]: 1.17E−07
- GI50 [29]: 7.56 nM
- CC50 [29]: 693 nM
- TGI [29]: 3.47E−08
- inhibition at 30 min, 10 µM [18]: 38%
- Myelo [19]: 6.76E−08
